Usually IC50 stands for the midpoint of a concentration-inhibition curve. Read a high IC50 as weaker potency.

One assay concerns the target T1, p52 (Homo sapiens, UniProt Q00653).
T1 sequence (Q00653 1-454 limits assumed): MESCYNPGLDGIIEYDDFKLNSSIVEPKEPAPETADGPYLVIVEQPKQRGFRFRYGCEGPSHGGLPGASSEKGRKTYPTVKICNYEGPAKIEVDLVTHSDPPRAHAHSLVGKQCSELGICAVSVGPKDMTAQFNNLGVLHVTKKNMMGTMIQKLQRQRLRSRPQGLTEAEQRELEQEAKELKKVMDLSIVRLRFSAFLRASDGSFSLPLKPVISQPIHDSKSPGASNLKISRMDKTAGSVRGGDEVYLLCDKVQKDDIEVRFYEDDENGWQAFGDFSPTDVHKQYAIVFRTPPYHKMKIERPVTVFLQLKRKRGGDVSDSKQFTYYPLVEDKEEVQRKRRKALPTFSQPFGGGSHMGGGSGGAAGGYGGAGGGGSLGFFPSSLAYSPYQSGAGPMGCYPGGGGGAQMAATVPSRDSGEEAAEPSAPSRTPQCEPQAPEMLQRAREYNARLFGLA
Briefly: TransAM NF-κB Family DNA Binding ELISA, p52. To be noted: for IC50: p52 binding IC50 (uM), cells without % sign; for inhibition at 5 µM: read-out: p52 binding % inhibit. at 5 uM, at 5 uM. Background: In an ELISA, binding on a coated surface is turned into a signal by an enzyme label.

Assay [1] deals with PGE2 release from RAW264.7 cells. Briefly: PGE2 release from LPS stimulated RAW264.7 cells. The class given is cell-based, mouse. To be noted: Mus musculus, RAW264.7, RAW 264.7 cells. As to the method: Specifically, A and B show the effects of the compound of Example 1 on soluble PGE2 and Il-6 secretion from RAW264.7 cells stimulated by 1 μg/mL of LPS. The cells were treated with the indicated concentrations of the compound of Example 1 for 2 hours, and then LPS was added and incubation continued for 4 hours.
LPS stimulation induces the expression of COX-2 the enzyme responsible for prostaglandin E2.

For a further assay, the target named is T2, RelB (Homo sapiens, UniProt Q01201).
T2 sequence (Q01201 1-579): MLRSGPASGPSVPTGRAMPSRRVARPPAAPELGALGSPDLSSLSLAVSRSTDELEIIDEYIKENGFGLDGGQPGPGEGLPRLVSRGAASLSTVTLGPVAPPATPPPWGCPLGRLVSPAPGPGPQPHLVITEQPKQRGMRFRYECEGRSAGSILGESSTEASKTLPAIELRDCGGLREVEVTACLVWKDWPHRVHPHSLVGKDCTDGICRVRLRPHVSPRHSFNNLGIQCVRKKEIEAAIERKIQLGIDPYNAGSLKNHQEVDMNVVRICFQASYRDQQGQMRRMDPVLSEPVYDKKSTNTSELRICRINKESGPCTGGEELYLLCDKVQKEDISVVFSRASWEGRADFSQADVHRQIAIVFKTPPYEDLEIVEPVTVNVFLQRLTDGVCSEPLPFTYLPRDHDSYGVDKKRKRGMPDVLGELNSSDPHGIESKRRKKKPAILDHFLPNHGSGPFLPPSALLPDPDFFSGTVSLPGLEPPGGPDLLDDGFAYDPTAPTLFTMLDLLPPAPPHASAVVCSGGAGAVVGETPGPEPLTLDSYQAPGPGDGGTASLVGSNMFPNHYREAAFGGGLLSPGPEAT
T2 sequence (Q00653 1-454 partner limits assumed): T1 sequence (Q00653 1-454 limits assumed)
Briefly: TransAM NF-κB Family DNA Binding ELISA, RelB. Conditions: for inhibition at 5 µM: read-out: RelB binding % inhibit. at 5 uM, at 5 uM; for IC50: RelB binding IC50 (uM), cells without % sign.

Assay [2] relates to NF-κB. Briefly: 293-cell pNF-κB-luc reporter assay, TNF-α induced. To be noted: HEK293 cells, NF-κB driven luciferase expression; read-out: 293/NFkB-luc EC50. The class given is cell-based. As for the experimental part: (§1) Inhibition of NF-κB in cells by the compound of Example 1. Two reporter cell assays were used to determine the ability of the compound of Example 1 to inhibit NE-KB driven transcription. The first assay was a 293-cell based assay with a stably integrated pNF-κB-luc reporter plasmid containing 3 NF-κB promoter elements. The second assay was a 293-cell based assay with a stably integrated pTRH1-NF-κB-dscGFP reporter containing 4 NF-κB promoter elements. Cells were treated with 0, 0.2, 1, 10, 20 and 40 μM of the compound of Example 1 for 2 hours then were induced with 20 ng/ml TNF-α for 18 hours. Following the induction, luminescence or fluorescence was quantified using a Beckman-Coulter 2300 plate reader. […] These values represent the median value generated from three independent experiments±the standard error. As a control, 0.5% DMSO treated and untreated cells were compared to verify that the Example 1 carrier had no effect on the expression of luciferase or in the readout of the assay. There was a slight decrease in the output from the assay in the DMSO treated population although it was not statistically significant. As a result of the controls, the decrease in activity in the drug treated samples was compared to the DMSO control sample.
On the technique in general: Reporter assays use an easily measured gene product as a stand-in for the process of interest.

The target of the next assay is T3, c-Rel (Homo sapiens, UniProt Q04864).
T3 sequence (Q04864 2-619 limits assumed): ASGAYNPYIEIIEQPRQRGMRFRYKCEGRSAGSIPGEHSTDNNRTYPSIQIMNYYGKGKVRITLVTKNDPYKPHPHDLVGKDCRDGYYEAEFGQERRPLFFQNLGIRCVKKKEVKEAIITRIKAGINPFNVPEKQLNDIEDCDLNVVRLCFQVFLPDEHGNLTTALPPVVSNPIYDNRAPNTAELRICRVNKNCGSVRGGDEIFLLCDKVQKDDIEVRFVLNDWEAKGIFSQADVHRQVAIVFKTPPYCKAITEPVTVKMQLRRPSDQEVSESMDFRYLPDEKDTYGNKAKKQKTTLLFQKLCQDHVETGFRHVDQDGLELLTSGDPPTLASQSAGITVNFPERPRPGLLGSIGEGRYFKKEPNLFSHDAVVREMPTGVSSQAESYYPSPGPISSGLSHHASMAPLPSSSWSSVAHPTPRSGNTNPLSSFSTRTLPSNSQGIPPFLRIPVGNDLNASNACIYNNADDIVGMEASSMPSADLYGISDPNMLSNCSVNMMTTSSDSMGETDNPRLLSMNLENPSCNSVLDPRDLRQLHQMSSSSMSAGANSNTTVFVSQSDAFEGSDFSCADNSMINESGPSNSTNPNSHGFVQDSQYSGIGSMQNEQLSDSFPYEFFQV
Description: TransAM NF-κB Family DNA Binding ELISA, c-Rel. To be noted: for inhibition at 5 µM: read-out: c-Rel binding % inhibit. at 5 uM, at 5 uM; for IC50: c-Rel binding IC50 (uM), cells without % sign.

For another assay, the target named is T4, p50 (Homo sapiens, UniProt P19838).
T4 sequence (P19838 1-433 limits assumed): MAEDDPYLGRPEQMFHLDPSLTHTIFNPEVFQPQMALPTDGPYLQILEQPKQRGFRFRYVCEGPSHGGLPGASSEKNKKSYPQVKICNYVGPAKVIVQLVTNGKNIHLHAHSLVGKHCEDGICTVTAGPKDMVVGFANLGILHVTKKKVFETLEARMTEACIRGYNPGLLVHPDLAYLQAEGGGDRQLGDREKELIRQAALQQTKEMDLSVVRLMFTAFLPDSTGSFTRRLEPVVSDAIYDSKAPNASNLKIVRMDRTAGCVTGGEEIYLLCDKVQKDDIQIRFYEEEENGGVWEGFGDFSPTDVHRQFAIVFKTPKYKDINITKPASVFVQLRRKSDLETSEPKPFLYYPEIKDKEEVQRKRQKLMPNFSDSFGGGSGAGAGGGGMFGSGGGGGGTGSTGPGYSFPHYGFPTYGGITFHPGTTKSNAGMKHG
Description: TransAM NF-κB Family DNA Binding ELISA, p50. Conditions: for IC50: p50 binding IC50 (uM), cells without % sign; for inhibition at 5 µM: read-out: p50 binding % inhibit. at 5 uM.

The target of the next assay is p65 (RelA) (Homo sapiens, UniProt Q04206). Description: TransAM NF-κB Family DNA Binding ELISA, p65. Conditions: p65 binding IC50 (uM), binding to NF-κB sites.
Assay [3] concerns IL-6 release from RAW264.7 cells. Briefly: IL-6 release from LPS stimulated RAW264.7 cells. In kind it is cell-based, mouse. Conditions: Mus musculus, RAW264.7, RAW 264.7 cells. As to the method: Specifically, A and B show the effects of the compound of Example 1 on soluble PGE2 and Il-6 secretion from RAW264.7 cells stimulated by 1 μg/mL of LPS. The cells were treated with the indicated concentrations of the compound of Example 1 for 2 hours, and then LPS was added and incubation continued for 4 hours. […]

In assay [4] the test system is NF-κB. Description: 293-cell pTRH1-NF-κB-dscGFP reporter assay, TNF-α induced. The class given is cell-based. To be noted: Homo sapiens, HEK293, HEK293 cells, NF-κB driven GFP expression; read-out: NF-kB/293/GFP EC50. As for the experimental part:
as §1

A value given as a limit tells only on which side of the number the result lay.

Chain of p65 (RelA) (Q04206 whole entry): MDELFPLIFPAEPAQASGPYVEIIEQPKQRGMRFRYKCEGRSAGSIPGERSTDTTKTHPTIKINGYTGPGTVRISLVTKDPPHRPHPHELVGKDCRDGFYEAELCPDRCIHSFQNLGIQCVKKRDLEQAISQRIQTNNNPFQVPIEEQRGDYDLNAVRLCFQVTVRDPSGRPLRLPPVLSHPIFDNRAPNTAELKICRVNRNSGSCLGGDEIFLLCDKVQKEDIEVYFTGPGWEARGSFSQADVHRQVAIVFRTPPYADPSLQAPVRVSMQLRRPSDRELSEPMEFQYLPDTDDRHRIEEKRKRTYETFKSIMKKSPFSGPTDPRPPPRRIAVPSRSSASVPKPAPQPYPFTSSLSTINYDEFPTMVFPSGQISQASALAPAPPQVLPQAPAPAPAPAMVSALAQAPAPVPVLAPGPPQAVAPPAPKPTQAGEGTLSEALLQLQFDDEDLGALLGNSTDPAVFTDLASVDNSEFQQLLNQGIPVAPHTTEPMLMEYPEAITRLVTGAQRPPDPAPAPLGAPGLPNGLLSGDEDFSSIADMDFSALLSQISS
Description for RelB: (§2) Treated samples were then transferred to 30 μL Complete Binding Buffer (with DTT) in microplate wells pre-coated with the NF-κB consensus oligonucleotide. […] The plate was incubated for 1 hour at room temperature with gentle shaking and then washed 3 times with 200 μL 1× Wash Buffer. NF-κB p65, p50, p52, RelB, or c-Rel subunits bound to the plate were detected with 100 μL of the primary antibody (diluted 1:1000 in 1× Antibody Buffer) specific for that subunit. The plate was incubated for 1 hour at room temperature and then washed 3 times with 200 μL 1× Wash Buffer. Next, 100 μL of a HRP conjugated goat anti-rabbit antibody (diluted 1:1,000 in 1× Antibody Buffer) was added to each well. The plate was incubated for 1 hour at room temperature and then washed 4 times with 200 μL 1× Wash Buffer. 100 μL of room temperature Developing Solution was added to each well. The reaction was allowed to develop for 2-10 minutes until a medium dark blue color developed (depending on the subunit activity in the lot of extract or lot of recombinant protein used) and then the reaction was stopped with 100 μL Stop Solution yielding a yellow color. Absorbance was recorded using a Becton-Dickinson DTX 880 Multimode Detector at 450 nm with a reference wavelength subtracted at 620 nm.
Description for c-Rel: as §2
Description for p52: as §2
Description for p65 (RelA): as §2

For the compound `O=C(NC1=CC(=O)C2OC2C1O)c1cnc2ccc(Cl)cc2c1O` (racemic) [Example 5, (±)-6-chloro-4-hydroxy-quinoline-3-carboxylic acid-(2-hydroxy-5-oxo-7-oxa-bicyclo[4.1.0]hept-3-en-3-yl)-amide], the IC50 at p52 was > 481 µM; at p50, > 481 µM; on p65 (RelA), 230 µM. In addition, the EC50 was 6.5 µM in assay [1], > 38 µM in the assay on NF-κB [2], 0.43 µM in assay [3] and > 38 µM in the assay with NF-κB [4]. In addition, the results for the inhibition at 5 µM at RelB and at c-Rel were 0% and 12%, respectively.
For `O=C(NC1=CC(=O)C2OC2C1O)c1cc(Cl)cnc1O` (racemic) [Example 7, (±)-5-chloro-2-hydroxy-N-(2-hydroxy-5-oxo-7-oxa-bicyclo[4.1.0]hept-3-en-3-yl)-nicotinamide], the inhibition at 5 µM at p52 is 16%; at RelB, 32%; at c-Rel it was 63%; at p50, 19%. For the same compound, the EC50 in assay [1] turned out to be 6.8 µM; in the assay with NF-κB [2] it was 15 µM; in assay [3] it was 0.73 µM; with NF-κB [4], 3.2 µM. On p65 (RelA), the IC50 came out at 3.6 µM.
Turning to `COc1ncccc1C(=O)NC1=CC(=O)C2OC2C1O` (racemic) [Example 16, (±)-N-(2-hydroxy-5-oxo-7-oxa-bicyclo[4.1.0]hept-3-en-3-yl)-2-methoxy-nicotinamide], the IC50 stood at 3.7 µM at p52; 1.7 µM on RelB; 0.8 µM at c-Rel; 20 µM on p50; 0.88 µM at p65 (RelA). For the same compound, the EC50 in the assay on NF-κB [2] turned out to be 7.1 µM; in assay [3], 0.64 µM; in the assay on NF-κB [4], 1.2 µM.
On to `COc1nccnc1C(=O)NC1=CC(=O)C2OC2C1O` (racemic) [Example 26, (±)-3-methoxy-pyrazine-2-carboxylic acid (2-hydroxy-5-oxo-7-oxa-bicyclo[4.1.0]hept-3-en-3-yl)-amide], for which the IC50 on p52 is 84 µM; at RelB it was 12 µM; at c-Rel it was 14 µM; on p50, 246 µM; on p65 (RelA), 4.7 µM. Also, the EC50 with NF-κB [2] came to 16 µM; in assay [3], 1.6 µM; in the assay with NF-κB [4], 11 µM.
As to `COc1c(C(=O)NC2=CC(=O)C3OC3C2O)ccc2cccnc12` (racemic) [Example 29, (±)-N-(2-hydroxy-5-oxo-7-oxabicyclo[4.1.0]hept-3-en-3-yl)-8-methoxyquinoline-7-carboxamide], the IC50 on p52 was 59 µM; at RelB, 12 µM; on c-Rel, 11 µM; on p50 it was 129 µM; at p65 (RelA) it was 4.5 µM. The EC50 with NF-κB [2] was determined as 0.46 µM; in assay [3], 0.16 µM; in the assay with NF-κB [4] it was 2.2 µM.
Consider `O=C(NC1=CC(=O)C2OC2C1O)c1nc2ccccc2cc1O` (racemic) [Example 15, (±)-3-hydroxy-quinoline-2-carboxylic acid-(2-hydroxy-5-oxo-7-oxa-bicyclo[4.1.0]hept-3-en-3-yl)-amide], for which the inhibition at 5 µM at p52 amounted to 0%; on RelB, 0%; at c-Rel, 6%; at p50, 0%. Also, the EC50 in the assay with NF-κB [2] amounted to 11 µM; in assay [3], 1 µM; with NF-κB [4], 4.9 µM. The compound also registered an IC50 at p65 (RelA) of 488 µM.
Take `O=C(NC1=CC(=O)C2OC2C1O)c1cnc(-c2ccccc2)nc1O` (racemic) [Example 8, (±)-4-hydroxy-2-phenylpyrimidine-5-carboxylic acid (2-hydroxy-5-oxo-7-oxa-bicyclo[4.1.0]hept-3-en-3-yl)-amide]: the inhibition at 5 µM on p52 is 17%; at RelB it was 21%; on c-Rel, 46%; on p50, 16%. Besides, the EC50 was found to be 26.2 µM in assay [1], 37 µM in the assay with NF-κB [2], 2.2 µM in assay [3] and 10 µM in the assay with NF-κB [4].
For `O=C(NC1=CC(=O)C2OC2C1O)c1cnccc1O` (racemic) [Example 4, (±)-4-hydroxy-N-(2-hydroxy-5-oxo-7-oxa-bicyclo[4.1.0]hept-3-en-3-yl)-nicotinamide], the IC50 on p52 stood at 365 µM; at p50, 118 µM; at p65 (RelA) it was 5 µM. Further, the figures for the inhibition at 5 µM on RelB and at c-Rel were 21% and 23%, respectively. Further, the EC50 with NF-κB [2] is > 51 µM; in assay [3] it was > 51 µM; in the assay on NF-κB [4], 40 µM.

Values taken from US8629164B2, “Inhibitors of NF-κB” (Profectus Biosciences, Inc., priority 2009, dated 2014).
